Results: patent publication US9969742B2, “Imidazotriazinone compounds” (Ironwood Pharmaceuticals, Inc., priority 2012, dated 2018)
Where two headings read alike, the source gives them in different places. Values belong to the compound of their own block, whether it stands above or below them.

Assays:
Type in all cases: biochemical
PDE1A = target: T1, PDE1A (Homo sapiens, UniProt P54750); experiment: Phosphodiesterase enzyme screening assay, PDE1A
T1 construct: purchased Reaction Biology Corporation, Malvern, Pa
How it was run: (§1)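 Read-out was electrophoretic mobility-shift separation on chip of fluorescent cyclic nucleotide from 5′-AMP/5′-GMP, with inhibition or enhancement judged against control wells (quadruplicate means). Reactions lasted 1 h at RT in HEPES pH 7.5 buffer with MgCl2, DTT and Brij plus 4.0 μM cGMP substrate, then were halted with EDTA stop buffer.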

PDE9A2 = target: T2, PDE9A2 (Homo sapiens, UniProt O76083); experiment: Phosphodiesterase enzyme screening assay, PDE9A2
T2 construct: purchased Reaction Biology Corporation, Malvern, Pa
How it was run: as §1

PDE1B = target: T3, PDE1B (Homo sapiens, UniProt Q01064); experiment: Phosphodiesterase enzyme screening assay, PDE1B
T3 construct: purchased Reaction Biology Corporation, Malvern, Pa
How it was run: as §1

[1] = ratio of IC50 values, value greater than 1 indicates greater selectivity for PDE9A2
[2] = 4.0 μM cGMP substrate, 1 hour at R.T., read-out: Band (PDE9A2 IC50)
[3] = Table 2, ratio of IC50 values, value greater than 1 indicates greater selectivity for PDE9A2
[4] = Table 1, ratio of IC50 values, value greater than 1 indicates greater selectivity for PDE9A2
[5] = Table 1, 10 concentrations, 4.0 μM cGMP substrate, 1 hour at R.T., read-out: Band (PDE9A2 IC50)
[6] = ratio of IC50 values, PDE1A versus PDE9A2, value greater than 1 = greater selectivity for PDE9A2
[7] = Table 3, 4.0 μM cGMP substrate, 1 hour at R.T., read-out: Band (PDE9A2 IC50)
[8] = ratio of IC50 values, PDE1B versus PDE9A2, value greater than 1 = greater selectivity for PDE9A2
[9] = ratio of IC50 values, PDE1A versus PDE9A2, value greater than 1 indicates greater selectivity for PDE9A2
[10] = ratio of IC50 values, PDE1B versus PDE9A2, value greater than 1 indicates greater selectivity for PDE9A2
[11] = ratio of IC50 values PDE1A vs PDE9A2, value greater than 1 indicates greater selectivity for PDE9A2
[12] = IC50 band, 4.0 μM cGMP substrate, 1 hour at R.T.
[13] = ratio of IC50 values PDE1B vs PDE9A2, value greater than 1 indicates greater selectivity for PDE9A2

T3 sequence (Q01064 whole entry): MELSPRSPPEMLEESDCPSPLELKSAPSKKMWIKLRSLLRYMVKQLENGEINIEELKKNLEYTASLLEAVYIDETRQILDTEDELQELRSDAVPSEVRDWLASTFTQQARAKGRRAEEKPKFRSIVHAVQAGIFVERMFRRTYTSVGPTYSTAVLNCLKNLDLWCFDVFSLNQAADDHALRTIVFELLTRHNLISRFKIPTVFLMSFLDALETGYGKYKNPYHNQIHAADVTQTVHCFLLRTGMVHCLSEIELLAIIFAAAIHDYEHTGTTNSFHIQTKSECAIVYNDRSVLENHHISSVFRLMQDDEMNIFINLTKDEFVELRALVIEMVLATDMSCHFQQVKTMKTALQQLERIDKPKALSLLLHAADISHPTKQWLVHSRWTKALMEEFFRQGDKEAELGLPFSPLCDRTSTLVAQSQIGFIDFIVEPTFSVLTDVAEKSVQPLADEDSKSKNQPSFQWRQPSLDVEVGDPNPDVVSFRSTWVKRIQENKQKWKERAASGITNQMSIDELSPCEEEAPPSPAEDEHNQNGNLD
T2 sequence (O76083 1-533 isoform O76083-2): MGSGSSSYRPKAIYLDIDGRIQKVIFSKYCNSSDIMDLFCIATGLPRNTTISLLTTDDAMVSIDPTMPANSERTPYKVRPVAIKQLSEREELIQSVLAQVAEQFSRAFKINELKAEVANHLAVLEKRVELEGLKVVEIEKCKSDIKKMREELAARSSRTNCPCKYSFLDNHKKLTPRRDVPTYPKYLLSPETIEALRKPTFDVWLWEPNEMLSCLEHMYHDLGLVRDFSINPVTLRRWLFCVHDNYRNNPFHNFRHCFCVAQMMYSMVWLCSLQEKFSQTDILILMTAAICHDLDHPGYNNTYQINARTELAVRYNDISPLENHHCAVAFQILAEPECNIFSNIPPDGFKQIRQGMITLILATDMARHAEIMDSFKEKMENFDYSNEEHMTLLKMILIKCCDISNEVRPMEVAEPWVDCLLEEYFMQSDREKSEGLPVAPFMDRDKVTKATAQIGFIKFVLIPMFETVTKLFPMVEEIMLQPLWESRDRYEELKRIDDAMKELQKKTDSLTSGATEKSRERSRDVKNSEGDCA
T1 sequence (P54750 whole entry): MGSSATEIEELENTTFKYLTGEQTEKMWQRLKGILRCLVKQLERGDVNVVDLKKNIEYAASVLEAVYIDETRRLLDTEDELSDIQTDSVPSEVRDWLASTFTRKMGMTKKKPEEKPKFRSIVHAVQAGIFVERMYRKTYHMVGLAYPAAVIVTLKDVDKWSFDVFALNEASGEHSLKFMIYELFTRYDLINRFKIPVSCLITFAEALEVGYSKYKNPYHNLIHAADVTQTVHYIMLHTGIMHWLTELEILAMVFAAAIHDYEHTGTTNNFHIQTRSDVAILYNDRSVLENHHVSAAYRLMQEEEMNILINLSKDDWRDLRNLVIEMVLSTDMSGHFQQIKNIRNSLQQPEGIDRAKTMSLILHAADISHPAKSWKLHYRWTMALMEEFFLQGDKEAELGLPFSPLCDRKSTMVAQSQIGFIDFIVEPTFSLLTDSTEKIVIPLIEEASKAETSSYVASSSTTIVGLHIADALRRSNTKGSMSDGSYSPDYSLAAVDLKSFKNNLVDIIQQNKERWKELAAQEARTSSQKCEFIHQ

PDE1A selectivity (versus PDE9A2) (PDE1A; ratio of IC50 values PDE1A / PDE9A2, value greater than 1 = greater selectivity for PDE9A2): 1060 | IC50 (PDE9A2; [2]): < 1000 nM | PDE1B selectivity (versus PDE9A2) (PDE1B; ratio of IC50 values PDE1B / PDE9A2, value greater than 1 = greater selectivity for PDE9A2): 1780
Structure (SMILES): COc1cncc(CN2CC(C)C(c3nn4c(C5CCOCC5)ncc4c(=O)[nH]3)C2)c1 (single isomer, unassigned; (+)) [(+)-2-((3,4-trans)-1-((5-methoxypyridin-3-yl)methyl)-4-methylpyrrolidin-3-yl)-7-(tetrahydro-2H-pyran-4-yl)imidazo[5,1-f][1,2,4]triazin-4(3H)-one]

PDE1A selectivity (versus PDE9A2) (PDE1A; [3]): 26 | IC50 (PDE9A2; Table 2, 10 concentrations, 4.0 μM cGMP substrate, 1 hour at R.T., read-out: Band (PDE9A2 IC50)): < 1000 nM | PDE1B selectivity (versus PDE9A2) (PDE1B; [3]): 64
Structure (SMILES): COc1cnc(CN2CC(C)C(c3nn4c(C5CCOCC5)ncc4c(=O)[nH]3)C2)nc1 (single isomer, unassigned; (+)) [(+)-2-((3,4-trans)-1-((5-methoxypyrimidin-2-yl)methyl)-4-methylpyrrolidin-3-yl)-7-(tetrahydro-2H-pyran-4-yl)imidazo[5,1-f][1,2,4]triazin-4(3H)-one]

PDE1A selectivity (versus PDE9A2) (PDE1A; [4]): 579 | IC50 (PDE9A2; [5]): < 1000 nM | PDE1B selectivity (versus PDE9A2) (PDE1B; [4]): 571
Structure (SMILES): COc1cccc(CN2CC(C)C(c3nn4c(C5CCOCC5)ncc4c(=O)[nH]3)C2)n1 (single isomer, unassigned; (+)) [(+)-2-((3,4-trans)-1-((6-methoxypyridin-2-yl)methyl)-4-methylpyrrolidin-3-yl)-7-(tetrahydro-2H-pyran-4-yl)imidazo[5,1-f][1,2,4]triazin-4(3H)-one]

PDE1A selectivity (versus PDE9A2) (PDE1A; [6]): 39 | IC50 (PDE9A2; [7]): < 1000 nM | PDE1B selectivity (versus PDE9A2) (PDE1B; [8]): 76
Structure (SMILES): CC1CN(Cc2ccc3cccc(F)c3n2)CC1c1nn2c(C3CCOCC3)ncc2c(=O)[nH]1 (single isomer, unassigned; (+)) [(+)-2-((3,4-trans)-1-((8-fluoroquinolin-2-yl)methyl)-4-methylpyrrolidin-3-yl)-7-(tetrahydro-2H-pyran-4-yl)imidazo[5,1-f][1,2,4]triazin-4(3H)-one]

PDE1A selectivity (versus PDE9A2) (PDE1A; [9]): 3 | IC50 (PDE9A2; read-out: Band (PDE9A2 IC50)): < 1000 nM | PDE1B selectivity (versus PDE9A2) (PDE1B; [10]): 10
Structure (SMILES): CC1CN(Cc2nc3ccccn3n2)CC1c1nn2c(-c3cccc(F)c3)ncc2c(=O)[nH]1 (single isomer, unassigned; (+)) [(+)-2-((3,4-trans)-1-([1,2,4]triazolo[1,5-a]pyridin-2-ylmethyl)-4-methylpyrrolidin-3-yl)-7-(3-fluorophenyl)imidazo[5,1-f][1,2,4]triazin-4(3H)-one]

PDE1A selectivity (versus PDE9A2) (PDE1A; [4]): 597 | IC50 (PDE9A2; [5]): < 1000 nM | PDE1B selectivity (versus PDE9A2) (PDE1B; [4]): 1847
Structure (SMILES): CC1CN(Cc2nc3ccccn3n2)CC1c1nn2c(C3CCC(F)(F)CC3)ncc2c(=O)[nH]1 (single isomer, unassigned; (+)) [(+)-2-((3,4-trans)-1-([1,2,4]triazolo[1,5-a]pyridin-2-ylmethyl)-4-methylpyrrolidin-3-yl)-7-(4,4-difluorocyclohexyl)imidazo[5,1-f][1,2,4]triazin-4(3H)-one]

PDE1A selectivity (versus PDE9A2) (PDE1A; [9]): 1000 | IC50 (PDE9A2; read-out: Band (PDE9A2 IC50)): < 1000 nM | PDE1B selectivity (versus PDE9A2) (PDE1B; [10]): 2140
Structure (SMILES): Cc1cc(F)c(F)cc1-c1ncc2c(=O)[nH]c(C3CN(Cc4nc5ccccn5n4)CC3C)nn12 (single isomer, unassigned; (+)) [(+)-2-((3,4-trans)-1-([1,2,4]triazolo[1,5-a]pyridin-2-ylmethyl)-4-methylpyrrolidin-3-yl)-7-(4,5-difluoro-2-methylphenyl)imidazo[5,1-f][1,2,4]triazin-4(3H)-one]

PDE1A selectivity (versus PDE9A2) (PDE1A; [9]): 56 | IC50 (PDE9A2; read-out: Band (PDE9A2 IC50)): < 1000 nM | PDE1B selectivity (versus PDE9A2) (PDE1B; [10]): 115
Structure (SMILES): Cc1ccncc1-c1ncc2c(=O)[nH]c(C3CN(Cc4nc5ccccn5n4)CC3C)nn12 (single isomer, unassigned; (+)) [(+)-2-((3,4-trans)-1-([1,2,4]triazolo[1,5-a]pyridin-2-ylmethyl)-4-methylpyrrolidin-3-yl)-7-(4-methylpyridin-3-yl)imidazo[5,1-f][1,2,4]triazin-4(3H)-one]

PDE1A selectivity (versus PDE9A2) (PDE1A; [9]): 490 | IC50 (PDE9A2; read-out: Band (PDE9A2 IC50)): < 1000 nM | PDE1B selectivity (versus PDE9A2) (PDE1B; [10]): 429
Structure (SMILES): Cc1ccccc1-c1ncc2c(=O)[nH]c(C3CN(Cc4nc5ccccn5n4)CC3C)nn12 (single isomer, unassigned; (+)) [(+)-2-((3,4-trans)-1-([1,2,4]triazolo[1,5-a]pyridin-2-ylmethyl)-4-methylpyrrolidin-3-yl)-7-(o-tolyl)imidazo[5,1-f][1,2,4]triazin-4(3H)-one]

PDE1A selectivity (versus PDE9A2) (PDE1A; [6]): 68 | IC50 (PDE9A2; [7]): < 1000 nM | PDE1B selectivity (versus PDE9A2) (PDE1B; [8]): 123
Structure (SMILES): CC1CN(Cc2ccoc2)CC1c1nn2c(C3CCOCC3)ncc2c(=O)[nH]1 (single isomer, unassigned; (+)) [(+)-2-((3,4-trans)-1-(furan-3-ylmethyl)-4-methylpyrrolidin-3-yl)-7-(tetrahydro-2H-pyran-4-yl)imidazo[5,1-f][1,2,4]triazin-4(3H)-one]

Further lines, the compound ahead of its results:

Structure (SMILES): COc1ccc(CN2CC(C)C(c3nn4c(C5CCOCC5)ncc4c(=O)[nH]3)C2)nc1 (single isomer, unassigned; (+)) [(+)-2-((3,4-trans)-1-((5-methoxypyridin-2-yl)methyl)-4-methylpyrrolidin-3-yl)-7-(tetrahydro-2H-pyran-4-yl)imidazo[5,1-f][1,2,4]triazin-4(3H)-one]
PDE1A selectivity (versus PDE9A2) (PDE1A; [1]): 216 | IC50 (PDE9A2; read-out: Band (PDE9A2 IC50)): < 1000 nM | PDE1B selectivity (versus PDE9A2) (PDE1B; [1]): 540

Structure (SMILES): Cc1cc(F)ccc1-c1ncc2c(=O)[nH]c(C3CN(Cc4nc5ccccn5n4)CC3C)nn12 (single isomer, unassigned; (+)) [(+)-2-((3,4-trans)-1-([1,2,4]triazolo[1,5-a]pyridin-2-ylmethyl)-4-methylpyrrolidin-3-yl)-7-(4-fluoro-2-methylphenyl)imidazo[5,1-f][1,2,4]triazin-4(3H)-one]
PDE1A selectivity (versus PDE9A2) (PDE1A; [11]): 215 | IC50 (PDE9A2; [12]): < 1000 nM | PDE1B selectivity (versus PDE9A2) (PDE1B; [13]): 473

Structure (SMILES): CC1CN(Cc2nc3ccccn3n2)CC1c1nn2c(-c3ccc(F)cc3)ncc2c(=O)[nH]1 (single isomer, unassigned; (+)) [(+)-2-((3,4-trans)-1-([1,2,4]triazolo[1,5-a]pyridin-2-ylmethyl)-4-methylpyrrolidin-3-yl)-7-(4-fluorophenyl)imidazo[5,1-f][1,2,4]triazin-4(3H)-one]
PDE1A selectivity (versus PDE9A2) (PDE1A; [9]): 87 | IC50 (PDE9A2; read-out: Band (PDE9A2 IC50)): < 1000 nM | PDE1B selectivity (versus PDE9A2) (PDE1B; [10]): 87

Structure (SMILES): Cc1ccc(F)cc1-c1ncc2c(=O)[nH]c(C3CN(Cc4nc5ccccn5n4)CC3C)nn12 (single isomer, unassigned; (+)) [(+)-2-((3,4-trans)-1-([1,2,4]triazolo[1,5-a]pyridin-2-ylmethyl)-4-methylpyrrolidin-3-yl)-7-(5-fluoro-2-methylphenyl)imidazo[5,1-f][1,2,4]triazin-4(3H)-one]
PDE1A selectivity (versus PDE9A2) (PDE1A; [11]): 487 | IC50 (PDE9A2; [12]): < 1000 nM | PDE1B selectivity (versus PDE9A2) (PDE1B; [13]): 473

Structure (SMILES): CCC(CC)c1ncc2c(=O)[nH]c(C3CN(Cc4nc5ccccn5n4)CC3C)nn12 (single isomer, unassigned; (+)) [(+)-2-((3,4-trans)-1-([1,2,4]triazolo[1,5-a]pyridin-2-ylmethyl)-4-methylpyrrolidin-3-yl)-7-(pentan-3-yl)imidazo[5,1-f][1,2,4]triazin-4(3H)-one]
PDE1A selectivity (versus PDE9A2) (PDE1A; ratio of IC50 values PDE1A / PDE9A2, value greater than 1 indicates greater selectivity for PDE9A2): 386 | IC50 (PDE9A2; [2]): < 1000 nM | PDE1B selectivity (versus PDE9A2) (PDE1B; ratio of IC50 values PDE1B / PDE9A2, value greater than 1 indicates greater selectivity for PDE9A2): 306

Structure (SMILES): CC1CN(Cc2nc3ccccn3n2)CC1c1nn2c(C3CCOCC3)ncc2c(=O)[nH]1 (single isomer, unassigned; (+)) [(+)-2-((3,4-trans)-1-([1,2,4]triazolo[1,5-a]pyridin-2-ylmethyl)-4-methylpyrrolidin-3-yl)-7-(tetrahydro-2H-pyran-4-yl)imidazo[5,1-f][1,2,4]triazin-4(3H)-one]
PDE1A selectivity (versus PDE9A2) (PDE1A; [4]): 563 | IC50 (PDE9A2; [5]): < 1000 nM | PDE1B selectivity (versus PDE9A2) (PDE1B; [4]): 457

Structure (SMILES): CC1CN(Cc2nc3ccccn3n2)CC1c1nn2c(C3CCCC3)ncc2c(=O)[nH]1 (single isomer, unassigned; (+)) [(+)-2-((3,4-trans)-1-([1,2,4]triazolo[1,5-a]pyridin-2-ylmethyl)-4-methylpyrrolidin-3-yl)-7-cyclopentylimidazo[5,1-f][1,2,4]triazin-4(3H)-one]
PDE1A selectivity (versus PDE9A2) (PDE1A; [9]): 98 | IC50 (PDE9A2; read-out: Band (PDE9A2 IC50)): < 1000 nM | PDE1B selectivity (versus PDE9A2) (PDE1B; [10]): 204

Structure (SMILES): CC1CN(Cc2ccc3nsnc3c2)CC1c1nn2c(C3CCOCC3)ncc2c(=O)[nH]1 (single isomer, unassigned; (+)) [(+)-2-((3,4-trans)-1-(benzo[c][1,2,5]thiadiazol-5-ylmethyl)-4-methylpyrrolidin-3-yl)-7-(tetrahydro-2H-pyran-4-yl)imidazo[5,1-f][1,2,4]triazin-4(3H)-one]
PDE1A selectivity (versus PDE9A2) (PDE1A; [6]): 212 | IC50 (PDE9A2; [7]): < 1000 nM | PDE1B selectivity (versus PDE9A2) (PDE1B; [8]): 473
